In ChEMBL document CHEMBL1152721, “A simple in vitro assay for assessing the reactivity of nitrile containing compounds” (Bioorg Med Chem Lett, 2009):

What was measured:
[1] = Binding affinity to glutathione assessed as typical half life at 1.4 nM
[2] = Binding affinity to cysteine assessed as typical half life at 1.4 nM
[3] = Binding affinity to glutathione assessed as typical half life
[4] = Binding affinity to cysteine assessed as typical half life

## CCCN1CCN(c2ccc(C(=O)NC3(C(=O)NCC#N)CCCCC3)cc2)CC1
[1]
  T1/2: 97 h
[2]
  T1/2: < 10 h

## COC(=O)C1=C(C#N)NC(C)=C(C(=O)OC(C)C)C1c1cccc([N+](=O)[O-])c1 (stereo not given)
[3]
  T1/2: 40 h
[4]
  T1/2: 2 h

## COCCN1CCC(Cc2ccc(C(=O)NCc3cnc(C#N)nc3NCC(C)(C)C)cc2)CC1
[3]
  T1/2: 7.3 h
